Literature values in article PMC11728000, “Antitumor Activity and Multi-Target Mechanism of Phenolic Schiff Bases Bearing Methanesulfonamide Fragments: Cell Cycle Analysis and a Molecular Modeling Study” (International Journal of Molecular Sciences, 2024).

What was measured:
CCRF-CEM = tested on: CCRF-CEM; design: method as in https://dtp.cancer.gov/dtpstandard/dwindex/index.jsp; details: ref https://dtp.cancer.gov/dtpstandard/dwindex/index.jsp; cited from earlier work
K-562 = tested on: K-562; design: method as in https://dtp.cancer.gov/dtpstandard/dwindex/index.jsp; details: ref https://dtp.cancer.gov/dtpstandard/dwindex/index.jsp; cited from earlier work
MOLT-4 = tested on: MOLT-4; design: method as in https://dtp.cancer.gov/dtpstandard/dwindex/index.jsp; details: ref https://dtp.cancer.gov/dtpstandard/dwindex/index.jsp; cited from earlier work
SR = tested on: SR; design: method as in https://dtp.cancer.gov/dtpstandard/dwindex/index.jsp; details: ref https://dtp.cancer.gov/dtpstandard/dwindex/index.jsp; cited from earlier work
A549/ATCC = tested on: A549/ATCC; design: method as in https://dtp.cancer.gov/dtpstandard/dwindex/index.jsp; details: ref https://dtp.cancer.gov/dtpstandard/dwindex/index.jsp; cited from earlier work
EKVX = tested on: EKVX; design: method as in https://dtp.cancer.gov/dtpstandard/dwindex/index.jsp; details: ref https://dtp.cancer.gov/dtpstandard/dwindex/index.jsp; cited from earlier work
NCI-H23 = tested on: NCI-H23; design: method as in https://dtp.cancer.gov/dtpstandard/dwindex/index.jsp; details: ref https://dtp.cancer.gov/dtpstandard/dwindex/index.jsp; cited from earlier work
NCI-H322M = tested on: NCI-H322M; design: method as in https://dtp.cancer.gov/dtpstandard/dwindex/index.jsp; details: ref https://dtp.cancer.gov/dtpstandard/dwindex/index.jsp; cited from earlier work
HCC-2998 = tested on: HCC-2998; design: method as in https://dtp.cancer.gov/dtpstandard/dwindex/index.jsp; details: ref https://dtp.cancer.gov/dtpstandard/dwindex/index.jsp; cited from earlier work
HT29 = tested on: HT29; design: method as in https://dtp.cancer.gov/dtpstandard/dwindex/index.jsp; details: ref https://dtp.cancer.gov/dtpstandard/dwindex/index.jsp; cited from earlier work
SF-268 = tested on: SF-268; design: method as in https://dtp.cancer.gov/dtpstandard/dwindex/index.jsp; details: ref https://dtp.cancer.gov/dtpstandard/dwindex/index.jsp; cited from earlier work
SF-295 = tested on: SF-295; design: method as in https://dtp.cancer.gov/dtpstandard/dwindex/index.jsp; details: ref https://dtp.cancer.gov/dtpstandard/dwindex/index.jsp; cited from earlier work
SF-539 = tested on: SF-539; design: method as in https://dtp.cancer.gov/dtpstandard/dwindex/index.jsp; details: ref https://dtp.cancer.gov/dtpstandard/dwindex/index.jsp; cited from earlier work
SNB-19 = tested on: SNB-19; design: method as in https://dtp.cancer.gov/dtpstandard/dwindex/index.jsp; details: ref https://dtp.cancer.gov/dtpstandard/dwindex/index.jsp; cited from earlier work
SNB-75 = tested on: SNB-75; design: method as in https://dtp.cancer.gov/dtpstandard/dwindex/index.jsp; details: ref https://dtp.cancer.gov/dtpstandard/dwindex/index.jsp; cited from earlier work
U251 = tested on: U251; design: method as in https://dtp.cancer.gov/dtpstandard/dwindex/index.jsp; details: ref https://dtp.cancer.gov/dtpstandard/dwindex/index.jsp; cited from earlier work
LOX IMVI = tested on: LOX IMVI; design: method as in https://dtp.cancer.gov/dtpstandard/dwindex/index.jsp; details: ref https://dtp.cancer.gov/dtpstandard/dwindex/index.jsp; cited from earlier work
MALME-3M = tested on: MALME-3M; design: method as in https://dtp.cancer.gov/dtpstandard/dwindex/index.jsp; details: ref https://dtp.cancer.gov/dtpstandard/dwindex/index.jsp; cited from earlier work
MDA-MB-435 = tested on: MDA-MB-435; design: method as in https://dtp.cancer.gov/dtpstandard/dwindex/index.jsp; details: ref https://dtp.cancer.gov/dtpstandard/dwindex/index.jsp; cited from earlier work
IGROV1 = tested on: IGROV1; design: method as in https://dtp.cancer.gov/dtpstandard/dwindex/index.jsp; details: ref https://dtp.cancer.gov/dtpstandard/dwindex/index.jsp; cited from earlier work
SK-OV-3 = tested on: SK-OV-3; design: method as in https://dtp.cancer.gov/dtpstandard/dwindex/index.jsp; details: ref https://dtp.cancer.gov/dtpstandard/dwindex/index.jsp; cited from earlier work
786-0 = tested on: 786-0; design: method as in https://dtp.cancer.gov/dtpstandard/dwindex/index.jsp; details: ref https://dtp.cancer.gov/dtpstandard/dwindex/index.jsp; cited from earlier work
CAKI-1 = tested on: CAKI-1; design: method as in https://dtp.cancer.gov/dtpstandard/dwindex/index.jsp; details: ref https://dtp.cancer.gov/dtpstandard/dwindex/index.jsp; cited from earlier work
RXF 393 = tested on: RXF 393; design: method as in https://dtp.cancer.gov/dtpstandard/dwindex/index.jsp; details: ref https://dtp.cancer.gov/dtpstandard/dwindex/index.jsp; cited from earlier work
TK-10 = tested on: TK-10; design: method as in https://dtp.cancer.gov/dtpstandard/dwindex/index.jsp; details: ref https://dtp.cancer.gov/dtpstandard/dwindex/index.jsp; cited from earlier work
UO-31 = tested on: UO-31; design: method as in https://dtp.cancer.gov/dtpstandard/dwindex/index.jsp; details: ref https://dtp.cancer.gov/dtpstandard/dwindex/index.jsp; cited from earlier work
MCF-7 = tested on: MCF-7; design: method as in https://dtp.cancer.gov/dtpstandard/dwindex/index.jsp; details: ref https://dtp.cancer.gov/dtpstandard/dwindex/index.jsp; cited from earlier work
MDA-MB-231/ATCC = tested on: MDA-MB-231/ATCC; design: method as in https://dtp.cancer.gov/dtpstandard/dwindex/index.jsp; details: ref https://dtp.cancer.gov/dtpstandard/dwindex/index.jsp; cited from earlier work
HS 578T = tested on: HS 578T; design: method as in https://dtp.cancer.gov/dtpstandard/dwindex/index.jsp; details: ref https://dtp.cancer.gov/dtpstandard/dwindex/index.jsp; cited from earlier work
T-47D = tested on: T-47D; design: method as in https://dtp.cancer.gov/dtpstandard/dwindex/index.jsp; details: ref https://dtp.cancer.gov/dtpstandard/dwindex/index.jsp; cited from earlier work
[1] = tested on: Leukemia subpanel tumor cell lines; details: cited from earlier work; for GI50: read-out: GI50, subpanel average, ref https://dtp.cancer.gov/dtpstandard/dwindex/index.jsp; for CC50: read-out: LC50, subpanel average, ref https://dtp.cancer.gov/dtpstandard/dwindex/index.jsp; for TGI, subpanel average: ref https://dtp.cancer.gov/dtpstandard/dwindex/index.jsp
[2] = tested on: NSC Lung Cancer subpanel tumor cell lines; details: cited from earlier work; for CC50: read-out: LC50, subpanel average, ref https://dtp.cancer.gov/dtpstandard/dwindex/index.jsp; for TGI, subpanel average: ref https://dtp.cancer.gov/dtpstandard/dwindex/index.jsp
[3] = tested on: Ovarian Cancer subpanel tumor cell lines; details: cited from earlier work; for GI50: read-out: GI50, subpanel average, ref https://dtp.cancer.gov/dtpstandard/dwindex/index.jsp; for CC50: read-out: LC50, subpanel average, ref https://dtp.cancer.gov/dtpstandard/dwindex/index.jsp; for TGI, subpanel average: ref https://dtp.cancer.gov/dtpstandard/dwindex/index.jsp
[4] = tested on: Renal Cancer subpanel tumor cell lines; details: cited from earlier work; for GI50: read-out: GI50, subpanel average, ref https://dtp.cancer.gov/dtpstandard/dwindex/index.jsp; for CC50: read-out: LC50, subpanel average, ref https://dtp.cancer.gov/dtpstandard/dwindex/index.jsp; for TGI, subpanel average: ref https://dtp.cancer.gov/dtpstandard/dwindex/index.jsp
[5] = tested on: 59 human cancer cell lines; details: full panel mean-graph midpoint, ref https://dtp.cancer.gov/dtpstandard/dwindex/index.jsp, cited from earlier work; for GI50: read-out: GI50 MG-MID; for CC50: read-out: LC50 MG-MID
NCI-H226 = tested on: NCI-H226; design: method as in https://dtp.cancer.gov/dtpstandard/dwindex/index.jsp; details: ref https://dtp.cancer.gov/dtpstandard/dwindex/index.jsp; cited from earlier work
NCI-H522 = tested on: NCI-H522; design: method as in https://dtp.cancer.gov/dtpstandard/dwindex/index.jsp; details: ref https://dtp.cancer.gov/dtpstandard/dwindex/index.jsp; cited from earlier work
MDA-MB-468 = tested on: MDA-MB-468; design: method as in https://dtp.cancer.gov/dtpstandard/dwindex/index.jsp; details: ref https://dtp.cancer.gov/dtpstandard/dwindex/index.jsp; cited from earlier work

## Cc1ccc(-c2cc(C(F)(F)F)nn2-c2ccc(S(N)(=O)=O)cc2)cc1 [Celecoxib, celecoxib]
CCRF-CEM
  GI50: 12.6 µM
K-562
  GI50: 10 µM
MOLT-4
  GI50: 15.8 µM
SR
  GI50: 15.8 µM
A549/ATCC
  GI50: 15.8 µM
EKVX
  GI50: 19.9 µM
NCI-H23
  GI50: 15.8 µM
NCI-H322M
  GI50: 19.9 µM
HCC-2998
  GI50: 15.8 µM
HT29
  GI50: 15.8 µM
SF-268
  GI50: 15.8 µM
SF-295
  GI50: 15.8 µM
SF-539
  GI50: 19.9 µM
SNB-19
  GI50: 19.9 µM
SNB-75
  GI50: 15.8 µM
U251
  GI50: 15.8 µM
LOX IMVI
  GI50: 19.9 µM
MALME-3M
  GI50: 19.9 µM
MDA-MB-435
  GI50: 15.8 µM
IGROV1
  GI50: 15.8 µM
SK-OV-3
  GI50: 19.9 µM
786-0
  GI50: 39.8 µM
CAKI-1
  GI50: 19.9 µM
RXF 393
  GI50: 15.8 µM
TK-10
  GI50: 19.9 µM
UO-31
  GI50: 15.8 µM
MCF-7
  GI50: 15.8 µM
MDA-MB-231/ATCC
  GI50: 15.8 µM
HS 578T
  GI50: 19.9 µM
T-47D
  GI50: 15.8 µM
[1]
  GI50: 12.3 µM
  CC50: 67.1 µM
  TGI, subpanel average: 29.27 µM
[2]; read-out: GI50, subpanel average, ref https://dtp.cancer.gov/dtpstandard/dwindex/index.jsp
  GI50: 25.1 µM
[2]
  CC50: 67.1 µM
  TGI, subpanel average: 41.93 µM
[3]
  GI50: 17.1 µM
  CC50: 65.9 µM
  TGI, subpanel average: 34.20 µM
[4]
  GI50: 19.9 µM
  CC50: 61.2 µM
  TGI, subpanel average: 41.19 µM
[5]
  TGI MG-MID: 34.0 µM
  GI50: 17.5 µM
  CC50: 63.3 µM

## CNC(=O)c1cc(Oc2ccc(NC(=O)Nc3ccc(Cl)c(C(F)(F)F)c3)cc2)ccn1 [Sorafenib, sorafenib]
CCRF-CEM
  GI50: 1.99 µM
K-562
  GI50: 3.16 µM
MOLT-4
  GI50: 3.16 µM
SR
  GI50: 3.16 µM
A549/ATCC
  GI50: 3.16 µM
EKVX
  GI50: 2.51 µM
NCI-H226
  GI50: 1.99 µM
NCI-H23
  GI50: 1.99 µM
NCI-H322M
  GI50: 2.51 µM
NCI-H522
  GI50: 1.99 µM
HCC-2998
  GI50: 3.16 µM
HT29
  GI50: 1.99 µM
SF-268
  GI50: 2.51 µM
SNB-19
  GI50: 3.16 µM
SNB-75
  GI50: 3.16 µM
U251
  GI50: 1.99 µM
MALME-3M
  GI50: 1.99 µM
IGROV1
  GI50: 2.51 µM
SK-OV-3
  GI50: 2.51 µM
786-0
  GI50: 3.16 µM
CAKI-1
  GI50: 3.16 µM
RXF 393
  GI50: 2.51 µM
TK-10
  GI50: 3.98 µM
UO-31
  GI50: 2.51 µM
MCF-7
  GI50: 2.51 µM
MDA-MB-231/ATCC
  GI50: 1.26 µM
MDA-MB-468
  GI50: 1.99 µM
[1]
  GI50: 1.91 µM
  CC50: > 100 µM
  TGI, subpanel average: 42.12 µM
[2]
  CC50: 49.1 µM
  TGI, subpanel average: 7.99 µM
[3]
  GI50: 2.89 µM
  CC50: 71.3 µM
  TGI, subpanel average: 14.43 µM
[4]
  GI50: 2.86 µM
  CC50: 54.8 µM
  TGI, subpanel average: 10.86 µM
[5]
  TGI MG-MID: 9.11 µM
  GI50: 2.33 µM
  CC50: 43.1 µM
